According to ChEMBL document CHEMBL1133080, “Substituted 5,7-diphenyl-pyrrolo[2,3d]pyrimidines: potent inhibitors of the tyrosine kinase c-Src” (Bioorg Med Chem Lett, 2000):

Experiments:
[1] = biological target: Vascular endothelial growth factor receptor 2 (Homo sapiens, UniProt P35968); experiment: Tested in vitro for inhibition of KDR-receptor tyrosine kinase
[2] = biological target: T1, Epidermal growth factor receptor (Homo sapiens, UniProt P00533); experiment: Tested in vitro for inhibition of EGF-receptor tyrosine kinase
T1 sequence (P00533 whole entry): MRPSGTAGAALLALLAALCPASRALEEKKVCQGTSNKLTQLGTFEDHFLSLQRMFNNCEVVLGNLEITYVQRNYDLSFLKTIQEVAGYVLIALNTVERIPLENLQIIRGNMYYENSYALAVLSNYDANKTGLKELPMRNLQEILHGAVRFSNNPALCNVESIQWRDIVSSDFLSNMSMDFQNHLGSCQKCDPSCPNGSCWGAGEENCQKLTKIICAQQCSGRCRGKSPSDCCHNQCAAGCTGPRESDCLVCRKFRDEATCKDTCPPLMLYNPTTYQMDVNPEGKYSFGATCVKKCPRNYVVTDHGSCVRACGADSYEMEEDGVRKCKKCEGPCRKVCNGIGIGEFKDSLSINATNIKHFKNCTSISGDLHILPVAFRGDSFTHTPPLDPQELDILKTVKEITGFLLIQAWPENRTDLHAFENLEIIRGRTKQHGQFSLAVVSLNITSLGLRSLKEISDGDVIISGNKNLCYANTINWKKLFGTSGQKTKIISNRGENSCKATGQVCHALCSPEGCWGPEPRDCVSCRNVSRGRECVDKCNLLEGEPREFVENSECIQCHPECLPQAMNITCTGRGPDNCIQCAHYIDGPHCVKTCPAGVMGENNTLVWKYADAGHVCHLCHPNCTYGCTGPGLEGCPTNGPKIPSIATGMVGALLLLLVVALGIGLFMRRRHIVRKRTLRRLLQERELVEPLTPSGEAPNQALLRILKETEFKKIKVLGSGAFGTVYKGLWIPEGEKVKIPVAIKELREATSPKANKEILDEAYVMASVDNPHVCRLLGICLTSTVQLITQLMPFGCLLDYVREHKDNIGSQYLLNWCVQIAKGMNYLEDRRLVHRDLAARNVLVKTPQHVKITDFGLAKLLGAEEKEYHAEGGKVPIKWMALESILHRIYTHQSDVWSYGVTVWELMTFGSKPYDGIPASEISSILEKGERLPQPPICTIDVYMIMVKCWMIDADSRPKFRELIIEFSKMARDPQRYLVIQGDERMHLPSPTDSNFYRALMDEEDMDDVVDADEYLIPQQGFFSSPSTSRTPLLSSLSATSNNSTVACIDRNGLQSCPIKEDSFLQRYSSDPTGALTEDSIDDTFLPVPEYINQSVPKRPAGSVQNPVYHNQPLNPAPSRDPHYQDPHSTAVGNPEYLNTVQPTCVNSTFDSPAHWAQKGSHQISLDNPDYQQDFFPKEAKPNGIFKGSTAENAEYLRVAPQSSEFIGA

[3] = biological target: Proto-oncogene tyrosine-protein kinase Src (Gallus gallus) (UniProt P00523); experiment: Tested for inhibition of protein tyrosine kinase c-Src phosphorylation in intact cells
[4] = biological target: Tyrosine-protein kinase CSK (Homo sapiens, UniProt P41240); experiment: Tested for inhibition of protein tyrosine kinase Csk phosphorylation in intact cells; assay type: cell-based
[5] = biological target: Cyclin-dependent kinase 1 (Homo sapiens, UniProt P06493); experiment: Tested in vitro for inhibition of serine/threonine kinase Cdc2
Sequence of Cyclin-dependent kinase 1 (P06493 whole entry): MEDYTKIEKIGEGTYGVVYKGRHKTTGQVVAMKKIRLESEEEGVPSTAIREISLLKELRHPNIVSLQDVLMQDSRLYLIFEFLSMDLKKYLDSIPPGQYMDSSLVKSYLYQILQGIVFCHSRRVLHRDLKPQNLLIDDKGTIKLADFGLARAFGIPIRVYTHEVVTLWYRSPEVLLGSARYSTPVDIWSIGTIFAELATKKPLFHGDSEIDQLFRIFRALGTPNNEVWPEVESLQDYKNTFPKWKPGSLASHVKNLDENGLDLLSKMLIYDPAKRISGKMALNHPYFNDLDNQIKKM

[6] = biological target: Tyrosine-protein kinase ABL (Homo sapiens, UniProt P00519+P42684); experiment: Tested in vitro for inhibition of non-receptor tyrosine kinase v-Abl; assay type: protein assay
[7] = biological target: T2, Proto-oncogene tyrosine-protein kinase Src (Gallus gallus, UniProt P00523); experiment: Tested for inhibition of protein tyrosine kinase c-Src phosphorylation
[8] = biological target: T2, Proto-oncogene tyrosine-protein kinase Src; experiment: Inhibition of protein tyrosine kinase c-Src
[9] = biological target: Platelet-derived growth factor receptor (Mus musculus, UniProt P05622+P26618); experiment: Inhibition of PDGF-receptor kinase; assay type: protein-complex assay
[10] = biological target: T1, Epidermal growth factor receptor; experiment: Tested for inhibition of EGF-receptor tyrosine kinase in intact cells

Sequence of Vascular endothelial growth factor receptor 2 (P35968 whole entry): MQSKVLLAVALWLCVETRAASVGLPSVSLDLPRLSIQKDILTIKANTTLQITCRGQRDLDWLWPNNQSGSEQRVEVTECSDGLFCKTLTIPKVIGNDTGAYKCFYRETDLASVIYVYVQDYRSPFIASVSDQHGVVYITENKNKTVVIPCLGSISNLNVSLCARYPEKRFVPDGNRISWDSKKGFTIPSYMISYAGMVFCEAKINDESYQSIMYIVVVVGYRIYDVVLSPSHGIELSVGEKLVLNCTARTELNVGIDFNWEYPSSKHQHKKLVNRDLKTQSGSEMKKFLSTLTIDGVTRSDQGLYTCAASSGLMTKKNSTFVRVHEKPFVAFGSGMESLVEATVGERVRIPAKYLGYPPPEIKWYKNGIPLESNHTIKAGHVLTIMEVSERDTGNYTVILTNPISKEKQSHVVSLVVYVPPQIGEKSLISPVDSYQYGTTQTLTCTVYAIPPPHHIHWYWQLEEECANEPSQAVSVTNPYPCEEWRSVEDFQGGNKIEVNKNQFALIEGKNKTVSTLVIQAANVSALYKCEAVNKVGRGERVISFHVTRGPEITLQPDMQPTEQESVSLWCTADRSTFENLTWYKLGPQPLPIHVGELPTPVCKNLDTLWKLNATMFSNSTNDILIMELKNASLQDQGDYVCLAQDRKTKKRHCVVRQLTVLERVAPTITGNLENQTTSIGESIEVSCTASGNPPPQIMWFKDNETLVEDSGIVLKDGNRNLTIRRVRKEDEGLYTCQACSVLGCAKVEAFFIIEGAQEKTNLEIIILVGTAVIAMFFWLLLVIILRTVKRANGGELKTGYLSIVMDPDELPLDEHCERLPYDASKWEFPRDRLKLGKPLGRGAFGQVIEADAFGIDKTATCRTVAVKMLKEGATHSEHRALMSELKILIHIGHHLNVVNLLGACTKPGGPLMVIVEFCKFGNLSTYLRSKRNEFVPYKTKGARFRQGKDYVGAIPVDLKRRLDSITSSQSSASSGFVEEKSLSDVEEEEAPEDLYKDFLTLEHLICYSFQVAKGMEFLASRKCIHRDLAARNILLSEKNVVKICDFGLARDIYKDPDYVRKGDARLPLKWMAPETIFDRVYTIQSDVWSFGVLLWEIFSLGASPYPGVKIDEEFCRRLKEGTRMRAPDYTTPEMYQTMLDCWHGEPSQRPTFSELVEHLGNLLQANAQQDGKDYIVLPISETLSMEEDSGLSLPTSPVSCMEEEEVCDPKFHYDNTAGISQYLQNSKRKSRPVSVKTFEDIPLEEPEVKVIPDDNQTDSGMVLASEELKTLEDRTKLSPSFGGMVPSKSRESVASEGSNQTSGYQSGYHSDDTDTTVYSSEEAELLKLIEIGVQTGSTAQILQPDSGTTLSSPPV

Row | SMILES | IC50 [1] | IC50 [2] | IC50 [3] | IC50 [4] | IC50 [5] | IC50 [6] | IC50 [7] | IC50 [8] | IC50 [9] | IC50 [10]
1 | COc1cccc(-c2cn(-c3ccc(CC(=O)NCCO)cc3)c3ncnc(N)c23)c1 | > 1000 nM | 800 nM | 3.9 µM | > 5 µM | > 10 µM | 0.22 µM | 20 nM |  |  | 
2 | Nc1ncnc2c1c(-c1ccccc1)cn2-c1ccccc1 |  |  | 3.5 µM | > 5 µM | 54 µM | 0.02 µM | 100 nM |  |  | 
3 | COc1cccc(-c2cn(-c3ccc(CNCCO)cc3)c3ncnc(N)c23)c1 | > 1000 nM | 300 nM | 0.5 µM | > 5 µM | > 10 µM | 0.23 µM | 30 nM |  | 600 nM | 6.4 µM
4 | Nc1ncnc2c1c(-c1cccc(Cl)c1)cn2-c1ccccc1 | 1000 nM | 700 nM |  |  | > 100 µM | 0.6 µM | 200 nM |  |  | 
5 | Nc1ncnc2c1c(-c1ccccc1)cn2-c1cccc(CNCCO)c1 | 3600 nM | 3400 nM | 4 µM | 5 µM | > 10 µM |  | 10 nM |  |  | 
6 | Cc1ccccc1-c1cn(-c2ccccc2)c2ncnc(N)c12 |  | 2650 nM |  |  | 90 µM |  | 6000 nM |  |  | 
7 | Nc1ncnc2c1c(-c1ccccc1)cn2-c1ccc(CNCCO)cc1 |  | 1400 nM | 0.7 µM | 4.3 µM | 82.5 µM | 1 µM | 30 nM |  |  | 
8 | COc1cccc(-c2cn(-c3ccc(CCN(C)CCO)cc3)c3ncnc(N)c23)c1 | > 1000 nM | 300 nM | 0.2 µM | > 5 µM | > 10 µM | 0.3 µM | 30 nM |  | 300 nM | 10 µM
9 | Nc1ncnc2c1c(-c1ccccc1)cn2-c1ccccc1CNCCO |  | 6400 nM |  |  | > 10 µM |  | 5000 nM |  |  | 
10 | O=c1[nH]cnc2c1c(-c1ccccc1)cn2-c1ccccc1 |  |  |  |  |  |  | 10000 nM |  |  | 
11 | COc1cccc(-c2cn(-c3ccccc3)c3ncnc(N)c23)c1 | > 1000 nM |  | 3.3 µM | > 5 µM | 43 µM | 0.06 µM | 50 nM |  | 2500 nM | 
12 | Clc1ncnc2c1c(-c1ccccc1)cn2-c1ccccc1 |  |  |  |  |  |  | 8000 nM |  |  | 
13 | Nc1ncnc2c1c(-c1ccccc1)cn2-c1ccc(CO)cc1 | 600 nM | 700 nM |  |  | 30 µM | 0.07 µM | 20 nM |  |  | 

The next lines start with the values.

Row | IC50 [1] | IC50 [2] | IC50 [3] | IC50 [4] | IC50 [5] | IC50 [6] | IC50 [7] | IC50 [8] | IC50 [9] | IC50 [10] | SMILES
14 | > 1000 nM | 800 nM |  |  | 33 µM | 0.05 µM | 60 nM |  |  |  | COc1cccc(-c2cn(-c3cccc(CO)c3)c3ncnc(N)c23)c1
15 |  |  |  |  |  |  |  | 500 nM |  |  | Nc1ncnc2c1c(-c1ccccc1)nn2-c1ccccc1
16 | 200 nM | 350 nM |  |  | > 10 µM | 0.4 µM | 150 nM |  |  |  | COc1ccc(-c2cn(-c3ccccc3)c3ncnc(N)c23)cc1
17 |  | 31000 nM |  |  | > 10 µM | > 10 µM | > 10000 nM |  |  |  | CNc1ncnc2c1c(-c1ccccc1)cn2-c1ccccc1
18 |  | 600 nM | > 5 µM | > 5 µM | 47 µM | 0.2 µM | 60 nM |  | 10000 nM | 12 µM | Nc1ncnc2c1c(-c1ccccc1)cn2-c1cccc(CO)c1
19 | 1100 nM | 1300 nM |  |  | > 10 µM | > 10 µM | 10000 nM |  |  |  | CCOC(=O)c1ccc(-c2cn(-c3ccccc3)c3ncnc(N)c23)cc1
20 |  | 1100 nM |  |  | > 10 µM | 3.4 µM | 300 nM |  |  |  | Nc1ncnc2c1c(-c1ccccc1)cn2-c1ccccc1CO
